Reference: patent US6068851A, “Formulation for use in the prevention of pathogen induced diseases including HIV and HSV” (Infectio Recherche, Inc., priority 1999, dated 2000)

Tests used:
[1] = Drug release from poloxamer gel (diffusion cell, dialysis membrane, radiolabelled drugs); type: physicochemical; details: body temperature vs 4° C.; data not shown
Description: The poloxamer gel could act as a sustained-drug release system which prolong the local microbicidal activity of the incorporated active agents. We have studied the release of antiviral agents (AZT, ddC, ddi, foscarnet, acyclovir) from our poloxamer gel formulations using radiolabelled drugs and a diffusion cell made of two compartments separated by a dialysis membrane. […] This is explained by the creation of large openings in the intermicellar network of the gel at high temperature which in turn increase the release of the incorporated active agents.

[2] = tested on: human cervical cells; experiment: Viability of human cervical cells with nonoxynol-9, free or in poloxamer gel; type: cell-based
Procedure: FIG. 2 represents the viability of human cervical cells following incubation with different concentrations of nonoxynol-9 either as free drug or incorporated into the poloxamer gel (19.5% w/w).

[3] = tested on: vaginal and cervical mucosae of rabbits; experiment: In vivo tolerance/toxicity, vaginal and cervical mucosae, daily intravaginal application; design: species or system New Zealand rabbits; details: once daily intravaginal for two weeks; nonoxynol-9 dose 125 mg
Procedure: (§1) Studies have been performed to evaluate the tolerance and toxicity of the poloxamer 407 gel (19.5% w/w) when applied locally once daily for two weeks to the vaginal and cervical mucosae of New Zealand rabbits. The gel was applied in its fluid state to allow a good penetration into the irregularly shaped surfaces of the mucosae. Biopsies of the vaginal and cervical mucosae were performed on days 0, 4, 7 and 14 for histological examinations. […] Such toxicity induced by nonoxynol-9 might favour the entry of pathogens.

[4] = tested on: cervical mucosa of rabbits; experiment: Histopathology of cervix after daily intravaginal application; type: in vivo, New Zealand rabbits; details: once daily intravaginal for two weeks
Procedure: as §1

[5] = background statement; cited from earlier work

| Compound | release of drugs from the poloxamer gel [1] | further results |
| --- | --- | --- |
| Cc1cn([C@H]2C[C@H](N=[N+]=[N-])[C@@H](CO)O2)c(=O)[nH]c1=O [AZT] | increased at body temperature when compared to 4 °C |  |
| Nc1nc2c(ncn2COCCO)c(=O)[nH]1 [acyclovir] | increased at body temperature when compared to 4 °C |  |
| Nc1ccn([C@H]2CC[C@@H](CO)O2)c(=O)n1 [ddC, 2'-3'-dideoxycytidine] | increased at body temperature when compared to 4 °C |  |
| O=c1[nH]cnc2c1ncn2[C@H]1CC[C@@H](CO)O1 [ddi, 2'-3'-dideoxyinosine] | increased at body temperature when compared to 4 °C |  |
| O=C(O)P(=O)(O)O [foscarnet] | increased at body temperature when compared to 4 °C |  |
| nonoxynol-9 |  | toxicity to human cervical cells (viability) ([2]; different concentrations of nonoxynol-9, free or in gel): highly toxic to the human cervical cells in a dose-dependent manner; concentration at which toxicity starts ([2]; free nonoxynol-9, human cervical cells): 150 µg/mL; toxicity to vaginal and cervical mucosae [3]: very toxic as evidenced by the presence of epithelial disruption, irritation, necrosis and bleeding; histopathology of cervical mucosa [4]: large accumulation of eosinophiles in the sub-mucosa and induce a major loss of integrity of the epithelial cells; local inflammation and ulcerations [5]: induce local inflammation and ulcerations |
